Measurements: PubChem BioAssay (NCI)
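Cells were grown in 96-well plates and exposed to each compound for 48 hours at five concentrations; endpoints were interpolated linearly between bracketing concentrations, or set to the highest concentration if not reached. GI50 = concentration required for 50% inhibition of growth. At the TGI there is no net growth.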

Experiments:
Test in all cases: NCI tumour cell line growth inhibition, 48 h
786-0 renal = system: 786-0 renal
A498 renal = system: A498 renal
A549 NSCLC = system: A549 NSCLC
ACHN renal = system: ACHN renal
BT-549 breast = system: BT-549 breast
CAKI-1 renal = system: CAKI-1 renal
CCRF-CEM leukemia = system: CCRF-CEM leukemia
COLO 205 colon = system: COLO 205 colon
DU-145 prostate = system: DU-145 prostate
EKVX NSCLC = system: EKVX NSCLC
HCC-2998 colon = system: HCC-2998 colon
HCT-116 colon = system: HCT-116 colon
HCT-15 colon = system: HCT-15 colon
HL-60(TB) leukemia = system: HL-60(TB) leukemia
HOP-62 NSCLC = system: HOP-62 NSCLC
HOP-92 NSCLC = system: HOP-92 NSCLC
HS 578T breast = system: HS 578T breast
HT29 colon = system: HT29 colon
IGROV1 ovarian = system: IGROV1 ovarian
K-562 leukemia = system: K-562 leukemia
KM12 colon = system: KM12 colon
LOX IMVI melanoma = system: LOX IMVI melanoma
M14 melanoma = system: M14 melanoma
MALME-3M melanoma = system: MALME-3M melanoma
MCF7 breast = system: MCF7 breast
MDA-MB-231 breast = system: MDA-MB-231 breast
MDA-MB-435 = system: MDA-MB-435
MOLT-4 leukemia = system: MOLT-4 leukemia
NCI-H226 lung = system: NCI-H226 lung
NCI-H23 lung = system: NCI-H23 lung
NCI-H460 lung = system: NCI-H460 lung
NCI-H522 lung = system: NCI-H522 lung
NCI/ADR-RES ovarian = system: NCI/ADR-RES ovarian
OVCAR-3 ovarian = system: OVCAR-3 ovarian
OVCAR-4 ovarian = system: OVCAR-4 ovarian
OVCAR-5 ovarian = system: OVCAR-5 ovarian
OVCAR-8 ovarian = system: OVCAR-8 ovarian
PC-3 prostate = system: PC-3 prostate
RPMI-8226 leukemia = system: RPMI-8226 leukemia
RXF 393 renal = system: RXF 393 renal
SF-268 CNS = system: SF-268 CNS
SF-295 CNS = system: SF-295 CNS
SF-539 CNS = system: SF-539 CNS
SK-MEL-2 melanoma = system: SK-MEL-2 melanoma
SK-MEL-28 melanoma = system: SK-MEL-28 melanoma
SK-MEL-5 melanoma = system: SK-MEL-5 melanoma
SK-OV-3 ovarian = system: SK-OV-3 ovarian
SN12C renal = system: SN12C renal
SNB-19 CNS = system: SNB-19 CNS
SNB-75 CNS = system: SNB-75 CNS
SR leukemia = system: SR leukemia
SW-620 colon = system: SW-620 colon
T-47D breast = system: T-47D breast
TK-10 renal = system: TK-10 renal
U251 CNS = system: U251 CNS
UACC-257 melanoma = system: UACC-257 melanoma
UACC-62 melanoma = system: UACC-62 melanoma
UO-31 renal = system: UO-31 renal

Clc1ccc(CCC(Cn2ccnc2)Sc2c(Cl)cccc2Cl)cc1 (stereo unspecified)
GI50 (786-0 renal): 3.49 µM
TGI (786-0 renal): 12.4 µM
GI50 (A498 renal): 1.59 µM
TGI (A498 renal): 6.66 µM
GI50 (A549 NSCLC): 3.5 µM
TGI (A549 NSCLC): 14.5 µM
GI50 (ACHN renal): 4.32 µM
TGI (ACHN renal): 15.1 µM
GI50 (BT-549 breast): 4.3 µM
TGI (BT-549 breast): 15.1 µM
GI50 (CAKI-1 renal): 2.6 µM
TGI (CAKI-1 renal): 10.5 µM
GI50 (CCRF-CEM leukemia): 3.4 µM
TGI (CCRF-CEM leukemia): 14.1 µM
GI50 (COLO 205 colon): 3.14 µM
TGI (COLO 205 colon): 11.1 µM
GI50 (DU-145 prostate): 5.05 µM
TGI (DU-145 prostate): 16.8 µM
GI50 (EKVX NSCLC): 2.64 µM
TGI (EKVX NSCLC): 17 µM
GI50 (HCC-2998 colon): 2.85 µM
TGI (HCC-2998 colon): 11.8 µM
GI50 (HCT-116 colon): 2.13 µM
TGI (HCT-116 colon): 5.3 µM
GI50 (HCT-15 colon): 3.54 µM
TGI (HCT-15 colon): 13.7 µM
GI50 (HL-60(TB) leukemia): 2.85 µM
TGI (HL-60(TB) leukemia): 5.72 µM
GI50 (HOP-62 NSCLC): 6.03 µM
TGI (HOP-62 NSCLC): 19.4 µM
GI50 (HOP-92 NSCLC): 1.79 µM
TGI (HOP-92 NSCLC): 7.23 µM
GI50 (HS 578T breast): 3.28 µM
TGI (HS 578T breast): 19.5 µM
GI50 (HT29 colon): 1.78 µM
TGI (HT29 colon): 3.77 µM
GI50 (IGROV1 ovarian): 4.45 µM
TGI (IGROV1 ovarian): 18.1 µM
GI50 (K-562 leukemia): 3.28 µM
TGI (K-562 leukemia): 11.7 µM
GI50 (KM12 colon): 3.19 µM
TGI (KM12 colon): 11.2 µM
GI50 (LOX IMVI melanoma): 2.11 µM
TGI (LOX IMVI melanoma): 5.11 µM
GI50 (M14 melanoma): 4.29 µM
TGI (M14 melanoma): 14.7 µM
GI50 (MALME-3M melanoma): 2.92 µM
TGI (MALME-3M melanoma): 8.21 µM
GI50 (MCF7 breast): 3.43 µM
TGI (MCF7 breast): 13.2 µM
GI50 (MDA-MB-231 breast): 3.9 µM
TGI (MDA-MB-231 breast): 18.8 µM
GI50 (MDA-MB-435): 2.78 µM
TGI (MDA-MB-435): 10.3 µM
GI50 (MOLT-4 leukemia): 2.89 µM
TGI (MOLT-4 leukemia): 8.21 µM
GI50 (NCI-H226 lung): 5.59 µM
TGI (NCI-H226 lung): 35.1 µM
GI50 (NCI-H23 lung): 3.41 µM
TGI (NCI-H23 lung): 15.5 µM
GI50 (NCI-H460 lung): 3.07 µM
TGI (NCI-H460 lung): 10.8 µM
GI50 (NCI-H522 lung): 2.37 µM
TGI (NCI-H522 lung): 7.5 µM
GI50 (NCI/ADR-RES ovarian): 3 µM
TGI (NCI/ADR-RES ovarian): 11.7 µM
GI50 (OVCAR-3 ovarian): 3.34 µM
TGI (OVCAR-3 ovarian): 10.8 µM
GI50 (OVCAR-4 ovarian): 3.58 µM
TGI (OVCAR-4 ovarian): 16.5 µM
GI50 (OVCAR-5 ovarian): 6.56 µM
TGI (OVCAR-5 ovarian): 20.4 µM
GI50 (OVCAR-8 ovarian): 3.15 µM
TGI (OVCAR-8 ovarian): 14.3 µM
GI50 (PC-3 prostate): 2.64 µM
TGI (PC-3 prostate): 12.6 µM
GI50 (RPMI-8226 leukemia): 3.25 µM
TGI (RPMI-8226 leukemia): > 100 µM
GI50 (RXF 393 renal): 2.57 µM
TGI (RXF 393 renal): 13.8 µM
GI50 (SF-268 CNS): 4.36 µM
TGI (SF-268 CNS): 20.2 µM
GI50 (SF-295 CNS): 2.56 µM
TGI (SF-295 CNS): 11.9 µM
GI50 (SF-539 CNS): 4.71 µM
TGI (SF-539 CNS): 17.8 µM
GI50 (SK-MEL-2 melanoma): 3.02 µM
TGI (SK-MEL-2 melanoma): 7.29 µM
GI50 (SK-MEL-28 melanoma): 7.03 µM
TGI (SK-MEL-28 melanoma): 19.5 µM
GI50 (SK-MEL-5 melanoma): 2.08 µM
TGI (SK-MEL-5 melanoma): 4.88 µM
GI50 (SK-OV-3 ovarian): 10.9 µM
TGI (SK-OV-3 ovarian): 22.8 µM
GI50 (SN12C renal): 2.82 µM
TGI (SN12C renal): 14.9 µM
GI50 (SNB-19 CNS): 5.07 µM
TGI (SNB-19 CNS): 48.7 µM
GI50 (SNB-75 CNS): 15.4 µM
TGI (SNB-75 CNS): 36.4 µM
GI50 (SR leukemia): 3.64 µM
TGI (SR leukemia): 24 µM
GI50 (SW-620 colon): 3.43 µM
TGI (SW-620 colon): 13.9 µM
GI50 (T-47D breast): 2.25 µM
TGI (T-47D breast): 10.5 µM
GI50 (TK-10 renal): 3.52 µM
TGI (TK-10 renal): 11.9 µM
GI50 (U251 CNS): 3.23 µM
TGI (U251 CNS): 14 µM
GI50 (UACC-257 melanoma): 3.39 µM
TGI (UACC-257 melanoma): 13 µM
GI50 (UACC-62 melanoma): 2.8 µM
TGI (UACC-62 melanoma): 12.5 µM
GI50 (UO-31 renal): 3.07 µM
TGI (UO-31 renal): 13.8 µM
